# Assay results reported in patent US20090264427A1, “3-Cyanoquinolines, Methods for Preparation and Use as Insulin-like Growth Factor Inhibitors” (Wyeth, priority 2008, published 2009).
# Target: T1, IGF1-receptor kinase (IGFR) (Homo sapiens, UniProt P08069)
# T1 construct: GST (with thrombin cleavage site) (N); made in house; host or cells: ExpresSF insect cells
# Assay: 96-well FRET (Lance) tyrosine kinase assay, IGFR
# Format: biochemical
# Settings: ATP 100 micromolar final, 1 hour reaction, enzyme form (GST-, Bis- or Tris-IGFR) not given
# T1 sequence (P08069 31-1367): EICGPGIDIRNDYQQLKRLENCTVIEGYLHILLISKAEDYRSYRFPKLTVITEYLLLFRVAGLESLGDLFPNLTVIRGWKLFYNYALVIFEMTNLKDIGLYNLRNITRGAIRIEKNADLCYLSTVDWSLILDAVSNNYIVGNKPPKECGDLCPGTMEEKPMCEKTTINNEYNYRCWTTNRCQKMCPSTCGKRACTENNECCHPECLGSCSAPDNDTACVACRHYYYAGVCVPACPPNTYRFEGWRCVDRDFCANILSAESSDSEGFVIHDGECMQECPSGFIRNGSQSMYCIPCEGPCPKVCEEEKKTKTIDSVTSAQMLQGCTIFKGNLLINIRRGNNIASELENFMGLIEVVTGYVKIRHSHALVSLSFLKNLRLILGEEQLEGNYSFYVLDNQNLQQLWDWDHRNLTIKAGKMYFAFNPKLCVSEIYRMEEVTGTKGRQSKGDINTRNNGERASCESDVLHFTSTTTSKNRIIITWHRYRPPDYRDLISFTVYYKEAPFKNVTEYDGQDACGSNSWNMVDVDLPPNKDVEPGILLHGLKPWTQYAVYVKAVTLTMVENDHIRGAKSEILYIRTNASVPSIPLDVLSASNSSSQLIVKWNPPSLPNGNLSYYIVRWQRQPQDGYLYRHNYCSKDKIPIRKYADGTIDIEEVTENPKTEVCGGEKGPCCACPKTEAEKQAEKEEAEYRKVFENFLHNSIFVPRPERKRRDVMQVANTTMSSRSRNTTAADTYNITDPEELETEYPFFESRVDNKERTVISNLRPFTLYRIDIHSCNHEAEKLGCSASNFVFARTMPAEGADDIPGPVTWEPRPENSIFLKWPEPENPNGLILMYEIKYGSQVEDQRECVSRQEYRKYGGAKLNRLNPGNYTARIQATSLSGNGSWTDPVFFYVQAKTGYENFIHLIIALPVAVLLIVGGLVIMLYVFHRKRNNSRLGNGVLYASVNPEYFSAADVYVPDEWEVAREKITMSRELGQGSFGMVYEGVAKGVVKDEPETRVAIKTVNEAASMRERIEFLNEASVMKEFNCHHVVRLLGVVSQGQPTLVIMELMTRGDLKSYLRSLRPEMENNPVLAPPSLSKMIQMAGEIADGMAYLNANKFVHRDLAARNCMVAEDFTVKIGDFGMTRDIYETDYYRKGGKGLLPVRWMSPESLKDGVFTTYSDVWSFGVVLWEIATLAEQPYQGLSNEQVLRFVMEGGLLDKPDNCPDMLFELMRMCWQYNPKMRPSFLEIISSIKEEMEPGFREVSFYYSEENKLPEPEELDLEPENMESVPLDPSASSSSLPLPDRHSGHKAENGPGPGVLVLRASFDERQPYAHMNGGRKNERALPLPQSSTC
row,SMILES,IC50 [nM]
1,"CCn1c(Sc2ccc(Nc3c(C#N)cnc4cc(OCCCN(CCO)C(C)(C)C)c(OC)cc34)cc2Cl)nc(C)c1C [Example 11, 7-{3-[tert-butyl(2-hydroxy-ethyl)amino]propoxy}-4-({3-chloro-4-[(1-ethyl-4,5-dimethyl-1H-imidazol-2-yl)thio]phenyl}amino)-6-methoxyquinoline-3-carbonitrile]",24
2,"CCn1c(Sc2ccc(Nc3c(C#N)cnc4cc(NCCCc5ccccc5)c(OC)cc34)cc2Cl)nc(C)c1C [Example 7, 4-({3-Chloro-4-[(1-ethyl-4,5-dimethyl-1H-imidazol-2-yl)thio]phenyl}amino)-6-methoxy-7-[(3-phenylpropyl)amino]quinoline-3-carbonitrile]",17200
3,"CCOC(=O)CN1CCN(CCCOc2cc3ncc(C#N)c(Nc4ccc(Sc5nc(C)c(C)n5CC)c(Cl)c4)c3cc2OC)CC1 [Example 22, ethyl [4-(3-{[4-({3-chloro-4-[(1-ethyl-4,5-dimethyl-1H-imidazol-2-yl)thio]phenyl}amino)-3-cyano-6-methoxyquinolin-7-yl]oxy}propyl)piperazin-1-yl]acetate]",17
4,"CCn1c(Sc2ccc(Nc3c(C#N)cnc4cc(OCCCNS(=O)(=O)c5ccccc5)c(OC)cc34)cc2Cl)nc(C)c1C [Example 10, N-(3-{4-[3-chloro-4-(1-ethyl-4,5-dimethyl-1H-imidazol-2-ylsulfanyl)-phenylamino]-3-cyano-6-methoxy-quinolin-7-yloxy}-propyl)-benzenesulfonamide]",3880
5,"CCn1c(Sc2ccc(Nc3c(C#N)cnc4cc(OCCCN5CCC(O)CC5)c(OC)cc34)cc2Cl)nc(C)c1C [Example 26, 4-({3-chloro-4-[(1-ethyl-4,5-dimethyl-1H-imidazol-2-yl)thio]phenyl}amino)-7-[3-(4-hydroxypiperidin-1-yl)propoxy]-6-methoxyquinoline-3-carbonitrile]",47
6,"CCOC(=O)C1CCN(CCCOc2cc3ncc(C#N)c(Nc4ccc(Sc5nc(C)c(C)n5CC)c(Cl)c4)c3cc2OC)CC1 [Example 15, ethyl 1-(3-{[4-({3-chloro-4-[(1-ethyl-4,5-dimethyl-1H-imidazol-2-yl)thio]phenyl}amino)-3-cyano-6-methoxyquinolin-7-yl]oxy}propyl)-piperidine-4-carboxylate]",142
7,"CCN1CCN(CCCOc2cc3ncc(C#N)c(Nc4ccc(Sc5nc(C)c(C)n5CC)c(Cl)c4)c3cc2OC)CC1 [Example 17, 4-({3-Chloro-4-[(1-ethyl-4,5-dimethyl-1H-imidazol-2-yl)sulfanyl]phenyl}amino)-7-[3-(4-ethyl-1-piperazinyl)propoxy]-6-methoxy-3-quinolinecarbonitrile]",5
8,"CCn1c(Sc2ccc(Nc3c(C#N)cnc4cc(NCCCN5CCN(C)CC5)c(OC)cc34)cc2Cl)nc(C)c1C [Example 28, 4-[3-Chloro-4-(1-ethyl-4,5-dimethyl-1H-imidazol-2-ylsulfanyl)-phenylamino]-6-methoxy-7-[3-(4-methyl-piperazin-1-yl)-propylamino]-quinoline-3-carbonitrile]",2
9,"CCn1c(Sc2ccc(Nc3c(C#N)cnc4cc(OCCCN5CCN(C(C)=O)CC5)c(OC)cc34)cc2Cl)nc(C)c1C [Example 27, 7-[3-(4-acetylpiperazin-1-yl)propoxy]-4-({3-chloro-4-[(1-ethyl-4,5-dimethyl-1H imidazol-2-yl)thio]phenyl}amino)-6-methoxyquinoline-3-carbonitrile]",16
10,"CCC1CCCCN1CCCOc1cc2ncc(C#N)c(Nc3ccc(Sc4nc(C)c(C)n4CC)c(Cl)c3)c2cc1OC (stereo not drawn) [Example 14, 4-({3-chloro-4-[(1-ethyl-4,5-dimethyl-1H-imidazol-2-yl)thio]phenyl}amino)-7-[3-(2-ethylpiperidin-1-yl)propoxy]-6-methoxy-quinoline-3-carbonitrile]",27
11,"CCn1c(Sc2ccc(Nc3c(C#N)cnc4cc(OCCCNS(C)(=O)=O)c(OC)cc34)cc2Cl)nc(C)c1C [Example 16, N-(3-{[4-({3-chloro-4-[(1-ethyl-4,5-dimethyl-1H-imidazol-2-yl)thio]phenyl]amino)-3-cyano-6-methoxyquinolin-7-yl]oxy}propyl)-methanesulfonamide]",35
12,"CCn1c(Sc2ccc(Nc3c(C#N)cnc4cc(OCCCN5CCOCC5)c(OC)cc34)cc2Cl)nc(C)c1C [Example 24, 4-({3-chloro-4-[(1-ethyl-4,5-dimethyl-1H-imidazol-2-yl)thio]phenyl}amino)-6-methoxy-7-(3-morpholin-4-ylpropoxy)qquinoline-3-carbonitrile]",22
13,"CCOC(=O)N1CCN(CCCOc2cc3ncc(C#N)c(Nc4ccc(Sc5nc(C)c(C)n5CC)c(Cl)c4)c3cc2OC)CC1 [Example 13, ethyl 4-(3-{[4-({3-chloro-4-[(1-ethyl-4,5-dimethyl-1H-imidazol-2-yl)thio]phenyl}amino)-3-cyano-6-methoxyquinolin-7-yl]oxy}propyl)-piperazine-1-carboxylate]",41
14,"CCn1c(Sc2ccc(Nc3c(C#N)cnc4cc(NCCCN5CCOCC5)c(OC)cc34)cc2Cl)nc(C)c1C [Example 8, 4-({3-chloro-4-[(1-ethyl-4,5-dimethyl-1H-imidazol-2-yl)thio]phenyl}-amino)-6-methoxy-7-[(3-morpholin-4-ylpropyl)amino]-quinoline-3-carbonitrile]",13
15,"COc1cc2c(Nc3ccc(Sc4nc(C)c(C)n4C)cc3)c(C#N)cnc2cc1NCCCN(C)C [Example 6, 7-{[3-(dimethyl-amino)propyl]-amino}-6-methoxy-4-({4-[(1,4,5-trimethyl-1H imidazol-2-yl)thio]phenyl}amino)-quinoline-3-carbonitrile]",394
16,"CCn1c(Sc2ccc(Nc3c(C#N)cnc4cc(OCCCN5CCC(O)C5)c(OC)cc34)cc2Cl)nc(C)c1C (stereo not drawn) [Example 20, 4-({3-chloro-4-[(1-ethyl-4,5-dimethyl-1H-imidazol-2-yl)thio]phenyl}amino)-7-[3-(3-hydroxypyrrolidin-1-yl)propoxy]-6-methoxyquinoline-3-carbonitrile]",20
17,"CCn1c(Sc2ccc(Nc3c(C#N)cnc4cc(NCCCN(CCO)CCO)c(OC)cc34)cc2Cl)nc(C)c1C [Example 9, 7-({3-[bis(2-hydroxyethyl)amino]propyl}amino)-4-({3-chloro-4-[(1-ethyl-4,5-dimethyl-1H-imidazol-2-yl)thio]phenyl}amino)-6-methoxyquinoline-3-carbonitrile]",21
18,"CCn1c(Sc2ccc(Nc3c(C#N)cnc4cc(OCCCN5CCN(CCO)CC5)c(OC)cc34)cc2Cl)nc(C)c1C [Example 18, 4-({3-chloro-4-[(1-ethyl-4,5-dimethyl-1H-imidazol-2-yl)thio]-phenyl}amino)-7-{3-[4-(2-hydroxyethyl)piperazin-1-yl]propoxy}-6-methoxy-quinoline-3-carbonitrile]",11
19,"COc1cc2c(Nc3ccc(Sc4nc(C)c(C)n4C)c(Br)c3)c(C#N)cnc2cc1NCCCN(C)C [Example 5, 4-({3-bromo-4-[(1,4,5-trimethyl-1H-imidazol-2-yl)thio]phenyl}amino)-7-{[3-(dimethylamino)-propyl]amino}-6-methoxy-quinoline-3-carbonitrile]",30
20,"COc1cc2c(Nc3ccc(Sc4nc5cc(C)ccc5n4C)c(Cl)c3)c(C#N)cnc2cc1NCCCN(C)C [Example 3, 4-({3-chloro-4-[(1,5-dimethyl-1H-benzimidazol-2-yl)thio]phenyl}amino)-7-{[3-(dimethylamino)propyl]amino}-6-methoxyquinoline-3-carbonitrile]",291

# Test system: not given
# Assay: not given
# Settings: not given
row,SMILES,melting point [°C]
1,"CCN1CCN(CCCOc2cc3ncc(C#N)c(Nc4ccc(Sc5nc(C)c(C)n5CC)c(Cl)c4)c3cc2OC)CC1 [Example 17, 4-({3-Chloro-4-[(1-ethyl-4,5-dimethyl-1H-imidazol-2-yl)sulfanyl]phenyl}amino)-7-[3-(4-ethyl-1-piperazinyl)propoxy]-6-methoxy-3-quinolinecarbonitrile]",229 to 230
